In this experiment the test system is HIF1α. Description: HIF1α expression in CoCl2-stimulated HepG2 cells (positive control for HIF1α antibody). The experiment is classed as cell-based, human. The settings on record: 4 hours of CoCl2 treatment. On the procedure:
After culture in DMEM/F12+10% FBS under normoxic conditions for 7 days, cells were exposed to 21% O2, 1% O2 and 10 μM Roxa, alone or in combination, for an additional 6 hours. The cells were lysed in 2× Laemmli sample buffer (Bio-Rad Laboratories, Hercules, Calif.) and sonicated to extract nuclear protein [Andersen et al. (2002) Current biology: CB 12:1-11]. Human hepatocellular carcinoma cell lines (HepG2 cells) (America Type Culture Collection, Manassas, Va.), which express high concentration of HIF1α under CoCl2 stimulation for 4 hours [Yoo et al. (2014) Journal of cellular biochemistry 115:1147-1158], were used as a positive control for HIF1α antibody. The CoCl2 was purchased from Sigma-Aldrich Corp (St. Louis, Mo.). Cell lysates were then evaluated for HIF1α (1:1000, BD Biosciences, San Jose, Calif.) or β-actin (1:10,000, Cell Signaling Technology) expression. Secondary antibodies were horseradish peroxidase (HRP)-conjugated goat anti-rabbit or goat anti-mouse IgG (both 1:5000, Sigma-Aldrich). Densitometry was performed using ImageJ (at the World Wide Web website of rsb.info.nih.gov/ij).

SMILES strings stand for the structures.

Consider `[Cl-].[Cl-].[Co+2]` [CoCl2, cobalt (II) chloride], for which the “HIF1α protein in HepG2 cell lysates” value is “substantial amounts of HIF1α protein”.

For the origin of these results see US20220347167A1, “A NEW TREATMENT FOR MEIBOMIAN GLAND DYSFUNCTION” (The Schepens Eye Research Institute, Inc., priority 2019, published 2022).
